According to US20260224555A1, “NEW PHENYLQUINOLONE COMPOUND HAVING ANTIBACTERIAL AND ANTI-CANCER FUNCTIONS AND PREPARATION THEREOF” (AlphaMol Science Ltd (Shanghai), priority 2022, published 2026):
≈ marks a conversion by molar mass, not a printed value. Read-outs that look alike come from different tables or passages of the source.

Assays:
E. feacium ATCC 700221 = assay: In vitro antibacterial activity assay (MIC, broth dilution); assay type: cell-based; conditions: read-out: G+ bacteria MIC E. feacium ATCC 700221
Source text: (§1) The method used to indicate the activity of the compounds in this example is to record the minimum inhibitory concentration (MIC) of the compounds against bacteria. The specific experimental method is as follows:
(§2) 1. The bacterial liquid cultured from a single colony was taken, and diluted into autoclaved CAMHB broth in a ratio of 1:1000, and mixed well.
(§3) 2. The prepared drug solution was filtered through a sterile 0.22 µm syringe filter and placed in a sterile EP tube for later use.
(§4) 3. A 96-well plate was taken, and 20 µL of drug solution ([…]) was added to each well in the first column of the 96-well plate. Then, 180 µL of diluted bacterial liquid was added and mixed well (Perform 3 replicate rows for each drug).
(§5) The same process was performed for the hydrochloride drug.
(§6) 4. 100 μL of diluted bacterial liquid was added to each well in the remaining 11 columns of the 96-well plate. Drugs are the same as above.
(§7) 5. Serial dilution: 100 μL of liquid was taken from the first column to the second column, mixed well, then 100 μL of liquid was taken from the second column to the third column, mixed well, and so on, sequentially diluting down to the last column (column 12). After mixing column 12 well, 100 μL of liquid thereof was discarded. The drug concentration in each well was decreased by two-fold serially (the concentration in the first well is 40 μg/mL).
(§8) 6. Blank CAMHB broth without added bacteria liquid was added to 3 blank wells in the 96-well plate, as negative control.
(§9) 7. The diluted bacterial liquid was added to 3 blank wells in the 96-well plate, as positive control.
(§10) 8. Incubated at 37° C. for 16 hours.
(§11) 9. Results reading: the minimum inhibitory concentration is the minimum drug concentration at which no bacterial growth is visible to the naked eye and without turbidity.

S. aureus ATCC 43300 = assay: as above; assay type: cell-based; conditions: Staphylococcus aureus
Source text: as §1, §2, §3, §4, §5, §6, §7, §8, §9, §10, §11

A. baumannii ATCC 17978 = assay: as above; assay type: cell-based; conditions: Acinetobacter baumannii, ATCC17978; Table 2; read-out: G- bacteria MIC A. baumannii ATCC 17978
Source text: as §1, §2, §3, §4, §5, §6, §7, §8, §9, §10, §11

E. coli ATCC 25922 = assay: as above; assay type: cell-based; conditions: Escherichia coli, ATCC25922
Source text: as §1, §2, §3, §4, §5, §6, §7, §8, §9, §10, §11

P. aeruginosa ATCC 27853 = assay: as above; assay type: cell-based; conditions: Pseudomonas aeruginosa, ATCC27853; Table 2; read-out: G- bacteria MIC P. aeruginosa ATCC 27853
Source text: as §1, §2, §3, §4, §5, §6, §7, §8, §9, §10, §11

[1] = tested on: Staphylococcus aureus ATCC43300; assay: Resistance test of bacteria against compounds (serial induction, 21 days); assay type: cell-based
Experimental: This example provides a resistance test of bacteria against compounds, and the specific experimental method is as follows.
1. […] It was ensured that among the 6 final concentrations of the drug diluted into the wells, some were higher than the original MIC of the bacteria and some were lower than the original MIC of the bacteria.
2. Preparation of bacterial liquid: 10 mL of culture medium was taken and added to a sterilized plate using a pipette, then 100 µL of the above-mentioned passaged bacterial liquid was added, and mixed well for later use.
3. The above-mentioned diluted bacterial liquid was taken and added to a 96-well plate using a pipette, 180 μL per well, 3 wells per group, 6 groups in total. 20 μL of drug solution was added to each well (note: it is necessary to replace the pipette tip each time the drug is added), so that the final drug concentrations were […], respectively. The well with 200 μL of diluted bacterial liquid was used as the positive control well, and the well with 200 μL of culture medium was used as the negative control well.
The test object was Staphylococcus aureus (S. aureus).

Hela = assay: In vitro anticancer activity test (MTT cell proliferation); assay type: cell-based; conditions: Homo sapiens, average proliferation inhibition rate at the dosage of 40 μM, read-out: Hela Average inhibition rate %
Experimental: The anticancer activity of the compounds was tested using an in vitro cancer cell tests. The specific test method is as follows:
1. Cell recovery and culture method: the cryovial was taken out from the liquid nitrogen container firstly, soaked directly in 37° C. warm water, and shaked from time to time to let it thaw as soon as possible. Then, the cryovial was transferred to a clean bench, and the lid was open. The cell suspension was taken into a centrifuge tube using a rubber-tipped dropper and more than 10 times the culture medium was added, mixed well, and centrifuged at 50 g for 5 minutes. Then, the supernatant was discarded, complete culture medium containing 10% fetal bovine serum was added to resuspend the cells, the cells was counted, the cell density was adjusted, and then inoculated into a culture bottle. The culture bottle was placed in a cell culture incubator at 5% CO2 and 37° C. The complete culture medium was replaced once the next day and the culture was continued.
2. Cell passaging method: adherent cells in the logarithmic growth phase were placed in a clean bench, the original culture medium was discarded, and washed three times with 1×PBS. An appropriate amount of 0.25% trypsin digestion solution was added to moisten the cells, and then the trypsin solution was aspirated. The cells were placed in a cell culture incubator at 5% CO2 and 37° C. for digestion for a suitable time, and observed under a microscope. When 90% of the cells become round, the cells were moved immediately to the clean bench and complete culture medium was added to terminate digestion. Then, the cells were dislodged by pipetting up and down with a rubber-tipped dropper to single cells. The cells were counted, and the cell density was adjusted. The cells were inoculated into a suitable culture bottle or dish, added enough complete culture medium, and placed in a cell culture incubator at 5% CO2 and 37° C. for static culture.
For suspension cells in the logarithmic phase, the original culture medium was directly centrifuged at 50 g for 5 minutes, the supernatant was discarded, and the cells were washed once with PBS and centrifuged. After discarding the supernatant, the complete culture medium was added and the cells were dispersed using a rubber-tipped dropper. The cells are counted, and the cell density was adjusted. The cells were inoculated into appropriate culture bottles or culture dishes, and sufficient complete culture medium was added, and the cells were cultured in a cell culture incubator at 5% CO2 and 37° C.
3. Cell proliferation assay: cells in good state in logarithmic phase were taken and appropriate amount of the cells was inoculated into 96-well plates according to the cell passage treatment method, with each well containing 180 μL complete medium. After the cells growth was recovered and the number of cells in each well is 5000±500, a drug was added for treatment.
After drug treatment during the experimental time, MTT solution with a final concentration of 0.5 mg/mL was added to each well, and placed in a cell culture incubator at 5% CO2 and 37° C. to allow a fully reaction of MTT with cells. After 4 hours, the solution in the 96-well plate was discarded, 100 µL of DMSO was added, and shaked to dissolve the formazan precipitated at the bottom of the plate, and the absorbance value of samples was detected at a wavelength of 570 nm using a microplate reader. Calculation method of cell viability rate:
Table 4 lists some compounds that have inhibitory effects against both of bacteria and cancer cells. In the table, the inhibitory effects against cancer cells are shown: the average proliferation inhibition rate (%) against cancer cells at the dosage of 40 μM.

[2] = tested on: Staphylococcus aureus ATCC43300; assay: Systemic blood infection animal model; assay type: in vivo, mice; conditions: 4 mg/kg oral gavage, 3 times a day, 7 days
Experimental: (2) Sterile phosphate buffered saline (PBS) was used to prepare a 1×10^7 CFU/mL Staphylococcus aureus ATCC43300 bacterial suspension for later use; the drug dosage required for mice was calculated for each group, and solutions of Example 34 and solvent for gavage (400 or 200 μL of Tween 80 was mixed with Example 34, grinded with an agate mortar until it became transparent, and then 0.5% sodium carboxymethyl cellulose solution was added to reach the required concentration and volume of the test drug) were prepared for later use.
(3) Except for the blank group, 100 μL of the bacterial suspension prepared in step 2 was injected into the tail vein of each mouse.
(4) 2 hours after the challenge, the drugs prepared in step 2 were administered by oral gavage according to the groups, 3 times a day, 200 uL each time, with an interval of 8 hours, for a total of 7 days. Mice were administered by oral gavage with the drug solvent for the model group and the blank group.
(5) 8 h after the last administration, mice were euthanized by cervical dislocation, disinfected with 75% alcohol, and then necropsied under sterile conditions. The kidneys and livers were harvested, observed and photographed, and the weight was recorded.
(6) The kidneys and livers were placed in a sterile glass grinder and sterile PBS in a volume ten times the weight of the organs was added and grinded. The grinding solutions were taken out, 10-fold serially diluted, smeared to a TSA solid culture medium, and incubated at 37° C. for 16 hours, then the colonies were counted. The number of colonies of the organs was calculated to evaluate the therapeutic effect.

[3] = Table 2, read-out: G- bacteria MIC E. coli ATCC 25922
[4] = ATCC43300, Table 1, read-out: G+ bacteria MIC S. aureus ATCC 43300

Structure (SMILES) | MIC (E. feacium ATCC 700221) | MIC (A. baumannii ATCC 17978) | MIC (E. coli ATCC 25922; [3]) | MIC (P. aeruginosa ATCC 27853) | MIC (S. aureus ATCC 43300; [4]) | other results
O=C(O)c1cn(C2CC2)c2cc(-c3ccc(S(=O)(=O)NCCCl)cc3)c(F)cc2c1=O [Example 15, 7-(4-(N-(2-chloroethyl)sulfamoyl)phenyl)-1-cyclopropyl-6-fluoro-4-oxo-1,4-dihydroquinolin-3-carboxylic acid] | > 8 µg/mL | – | – | – | – | MIC (S. aureus ATCC 43300; ATCC43300, read-out: G+ bacteria MIC S. aureus ATCC 43300): ≤ 0.1 µg/mL
O=C(O)c1cn(C2CC2)c2nc(-c3ccc(S(=O)(=O)NCCO)cc3)c(F)cc2c1=O [Example 18, 1-cyclopropyl-6-fluoro-7-(4-(N-(2-hydroxyethyl)aminosulfonyl)phenyl)-4-oxo-1,4-dihydro-1,8-naphthyridine-3-carboxylic acid] | – | 0.1 to 1 µg/mL (≈ 0.223 to 2.23 µM) | ≤ 0.1 µg/mL | 0.1 to 1 µg/mL (≈ 0.223 to 2.23 µM) | ≤ 0.1 µg/mL | MIC (E. feacium ATCC 700221; Table 1): 1 to 8 µg/mL (≈ 2.23 to 17.9 µM)
COc1c(-c2ccc(NC(=O)C(F)(F)F)c(C#N)c2)c(F)cc2c(=O)c(C(=O)O)cn(C3CC3)c12 [Example 8, 7-(3-cyano-4-(2,2,2-trifluoroacetamido)phenyl)-1-cyclopropyl-6-fluoro-8-methoxy-4-oxo-1,4-dihydroquinolin-3-carboxylic acid] | 1 to 8 µg/mL (≈ 2.04 to 16.3 µM) | 0.1 to 1 µg/mL (≈ 0.204 to 2.04 µM) | ≤ 0.1 µg/mL | 0.1 to 1 µg/mL (≈ 0.204 to 2.04 µM) | ≤ 0.1 µg/mL | –
O=C(O)c1cn(C2CC2)c2cc(N3CCNCC3)c(F)cc2c1=O [Ciprofloxacin, reference compound] | – | – | – | – | – | MIC (E. coli ATCC 25922; Table 4, read-out: E. coli ATCC 25922 MIC): ≤ 1 µg/mL; MIC (S. aureus ATCC 43300; ATCC43300, Table 4, read-out: S. aureus ATCC 43300 MIC): ≤ 1 µg/mL; resistance of bacteria in the subsequent culture ([1]; S. aureus ATCC43300, 21 days): increased rapidly; MIC at the end of the resistance experiment ([1]; period of 21 days, S. aureus ATCC43300): 128 µg/mL; inhibition at 40 µM (Hela): ≤ 10%; number of colonies of liver and kidney [2]: not apparent
